According to PubChem BioAssay (NCI):
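1) Cells in 96-well plates. 2) Compound, 48 h, 5 concentrations. 3) Linear interpolation between surrounding doses. 4) Unreached endpoint = highest concentration. At the TGI there is no net growth.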

What was measured:
Test in all cases: NCI tumour cell line growth inhibition, 48 h
[1] = tested on: 786-0 renal
[2] = tested on: A498 renal
[3] = tested on: A549 NSCLC
[4] = tested on: ACHN renal
[5] = tested on: CAKI-1 renal
[6] = tested on: CCRF-CEM leukemia
[7] = tested on: COLO 205 colon
[8] = tested on: DLD-1 colon
[9] = tested on: DMS 114 small cell lung
[10] = tested on: DMS 273 small cell lung
[11] = tested on: EKVX NSCLC
[12] = tested on: HCC-2998 colon
[13] = tested on: HCT-116 colon
[14] = tested on: HCT-15 colon
[15] = tested on: HL-60(TB) leukemia
[16] = tested on: HOP-18 NSCLC
[17] = tested on: HOP-62 NSCLC
[18] = tested on: HOP-92 NSCLC
[19] = tested on: HT29 colon
[20] = tested on: IGROV1 ovarian
[21] = tested on: K-562 leukemia
[22] = tested on: KM12 colon
[23] = tested on: KM20L2 colon
[24] = tested on: LOX IMVI melanoma
[25] = tested on: LXFL 529 NSCLC
[26] = tested on: M14 melanoma
[27] = tested on: M19-MEL melanoma
[28] = tested on: MALME-3M melanoma
[29] = tested on: MOLT-4 leukemia
[30] = tested on: NCI-H226 lung
[31] = tested on: NCI-H23 lung
[32] = tested on: NCI-H460 lung
[33] = tested on: NCI-H522 lung
[34] = tested on: OVCAR-3 ovarian
[35] = tested on: OVCAR-4 ovarian
[36] = tested on: OVCAR-5 ovarian
[37] = tested on: OVCAR-8 ovarian
[38] = tested on: RPMI-8226 leukemia
[39] = tested on: RXF 393 renal
[40] = tested on: SF-268 CNS
[41] = tested on: SF-295 CNS
[42] = tested on: SF-539 CNS
[43] = tested on: SK-MEL-2 melanoma
[44] = tested on: SK-MEL-28 melanoma
[45] = tested on: SK-MEL-5 melanoma
[46] = tested on: SK-OV-3 ovarian
[47] = tested on: SN12C renal
[48] = tested on: SNB-19 CNS
[49] = tested on: SNB-75 CNS
[50] = tested on: SNB-78 CNS
[51] = tested on: SR leukemia
[52] = tested on: SW-620 colon
[53] = tested on: TK-10 renal
[54] = tested on: U251 CNS
[55] = tested on: UACC-257 melanoma
[56] = tested on: UACC-62 melanoma
[57] = tested on: UO-31 renal
[58] = tested on: XF 498 CNS

What does the source list for `Cc1c(C(=O)C/C(=N\O)C(=O)Nc2cc(Cl)c(Cl)cc2Cl)[n+](=O)c2ccccc2n1[O-]`?
TGI [1]: > 100 µM; TGI [2]: 56.2 µM; TGI [3]: > 100 µM; TGI [4]: 67.5 µM; TGI [5]: > 100 µM; TGI [6]: > 100 µM; TGI [7]: 12.6 µM; TGI [8]: 81.8 µM; TGI [9]: 19.9 µM; TGI [10]: 38 µM; TGI [11]: 43.6 µM; TGI [12]: 23.5 µM; TGI [13]: 17 µM; TGI [14]: 23.5 µM; TGI [15]: > 100 µM; TGI [16]: 82.4 µM; TGI [17]: > 100 µM; TGI [18]: 46.2 µM; TGI [19]: > 100 µM; TGI [20]: 20.9 µM; TGI [21]: > 100 µM; TGI [22]: 26.2 µM; TGI [23]: 41.4 µM; TGI [24]: 43.6 µM; TGI [25]: 30.8 µM; TGI [26]: 15.9 µM; TGI [27]: 5.1 µM; TGI [28]: 21.1 µM; TGI [29]: 32.8 µM; TGI [30]: 37.5 µM; TGI [31]: 65.6 µM; TGI [32]: 35.2 µM; TGI [33]: 16.2 µM; TGI [34]: 7.52 µM; TGI [35]: 39.4 µM; TGI [36]: 39.6 µM; TGI [37]: 40.7 µM; TGI [38]: 38.4 µM; TGI [39]: 68.8 µM; TGI [40]: 75.7 µM; TGI [41]: 53.5 µM; TGI [42]: 32.7 µM; TGI [43]: 34.8 µM; TGI [44]: 52.1 µM; TGI [45]: 20.9 µM; TGI [46]: > 100 µM; TGI [47]: 18.9 µM; TGI [48]: > 100 µM; TGI [49]: > 100 µM; TGI [50]: > 100 µM; TGI [51]: 84.4 µM; TGI [52]: 9.74 µM; TGI [53]: 72.2 µM; TGI [54]: 31.3 µM; TGI [55]: 20.2 µM; TGI [56]: 16.5 µM; TGI [57]: 78.2 µM; TGI [58]: 46.8 µM
